In patent US20120157482A1, “COMPOUNDS AND METHODS” (priority 2009, published 2012):
Where a name gives a salt, the structure may show the parent alone.

Target: T1, His-MBP-TEV-Full length human TNNI3K (hTNNI3K) (Homo sapiens, UniProt Q59H18)
T1 construct: His-MBP-TEV-Full length human TNNI3K (hTNNI3K); His (N); TEV cleavage site (N); made in house; host or cells: baculovirus system (printed 'Baculokinase system')
T1 sequence (Q59H18 1-835): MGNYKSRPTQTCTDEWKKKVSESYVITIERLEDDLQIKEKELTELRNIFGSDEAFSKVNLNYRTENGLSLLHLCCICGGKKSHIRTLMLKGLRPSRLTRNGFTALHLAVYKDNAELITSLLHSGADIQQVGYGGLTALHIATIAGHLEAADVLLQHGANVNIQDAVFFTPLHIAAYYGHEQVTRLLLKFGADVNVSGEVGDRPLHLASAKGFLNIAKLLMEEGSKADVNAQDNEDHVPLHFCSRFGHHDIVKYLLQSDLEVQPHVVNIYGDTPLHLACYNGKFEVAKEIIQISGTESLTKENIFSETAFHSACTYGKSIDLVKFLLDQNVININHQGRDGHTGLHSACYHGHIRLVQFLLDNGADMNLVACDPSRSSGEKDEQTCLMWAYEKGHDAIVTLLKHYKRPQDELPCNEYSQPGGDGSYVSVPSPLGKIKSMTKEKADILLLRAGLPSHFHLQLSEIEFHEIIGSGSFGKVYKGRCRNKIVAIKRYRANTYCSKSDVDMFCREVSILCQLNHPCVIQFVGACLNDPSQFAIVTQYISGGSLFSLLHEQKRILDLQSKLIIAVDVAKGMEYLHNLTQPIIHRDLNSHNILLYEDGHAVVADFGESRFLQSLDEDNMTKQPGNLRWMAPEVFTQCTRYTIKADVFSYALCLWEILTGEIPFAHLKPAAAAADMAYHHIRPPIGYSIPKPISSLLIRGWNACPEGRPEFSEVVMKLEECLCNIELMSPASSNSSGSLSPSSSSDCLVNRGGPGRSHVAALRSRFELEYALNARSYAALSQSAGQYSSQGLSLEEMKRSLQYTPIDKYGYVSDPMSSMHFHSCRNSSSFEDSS
Assay: Fluorescent polarization assay of compound inhibition on hTNNI3K ATP binding (Biological Assay Method I)
Settings: displacement of fluorescent ligand, mean of a minimum of 2 experiments, read-out: mean pXC50 (converted)
Text: Materials: His-MBP-TEV-Full length human TNNI3K (hTNNI3K) was expressed in Baculokinase system and purified from amylase affinity column followed by Superdex200. The fluorescent ligand 5-({[2-({[3-({4-[(5-hydroxy-2-methylphenyl)amino]-2-pyrimidinyl}amino)phenyl]carbonyl}amino)ethyl]amino}carbonyl)-2-(6-hydroxy-3-oxo-3H-xanthen-9-yl)benzoic acid was used. The other buffer components, including MgCl2 (Catalog Number M1028), Bis-Tris (Catalog Number B7535), DTT (Catalog Number D9779) and Chaps (Catalog Number C3023) were purchased from Sigma-Aldrich.
A fluorescent polarization assay was used to determine does response of compound inhibition on hTNNI3K ATP binding. […]
Fifty (50) nL of inhibitors in DMSO (or DMSO controls) were stamped into a 384-well low volume Greiner black plate, followed by addition of 5 μL of Solution 1 to column 18 and 5 μL Solution 2 to columns 1-17 and 19-24 of the plate. […] After that, the fluorescent polarization was measured on Analyst (ex/em: 485/530 nm, Dichroic: 505). […]

IC50 [nM]	SMILES
25.1	CNc1cc(Oc2c(C)cc(NC(=O)Nc3cccc(C(F)(F)F)c3)cc2C)ncn1 [Example 5, N-(3,5-dimethyl-4-{[6-(methylamino)-4-pyrimidinyl]oxy}phenyl)-N′-[3-(trifluoromethyl)phenyl]urea trifluoroacetate]
25.1	CNc1cc(Oc2ccc(NC(=O)Nc3cccc(C(F)(F)F)c3)cc2F)ncn1 [Example 11, N-(3-fluoro-4-{[6-(methylamino)-4-pyrimidinyl]oxy}phenyl)-N′-[3-(trifluoromethyl)phenyl]urea trifluoroacetate]
